# Measured values as given in paper PMC4215984, “Structure of a Diguanylate Cyclase from Thermotoga maritima: Insights into Activation, Feedback Inhibition and Thermostability” (PLoS ONE, 2014).
# Legend:
# [1] = biological target: T1, tDGC (GGDEF domain of TM1788) (Thermotoga maritima, UniProt Q9X2A8, E196A); assay: gel filtration; format: binding; settings: I-site; co-purified ligand
# T1 construct: gene TM_1788; GGDEF domain, residues 82-248 of 248, N-terminal His6 tag, pET28b (salt-bridge mutants in pET22b), E. coli BL21(DE3); dimer with c-di-GMP, monomer without nucleotide
# [2] = biological target: T2, tDGC (GGDEF domain of TM1788) (Thermotoga maritima, UniProt Q9X2A8); assay: thermal unfolding by circular dichroism at […] nm; format: binding; settings: 20 mM Tris-HCl pH 8.5, 250 mM NaCl, 5% glycerol, 10 mM MgCl2, 0.8 mg/ml; co-purified ligand at I-site
# T2 construct: gene TM_1788; GGDEF domain, residues 82-248 of 248, N-terminal His6 tag, pET28b (salt-bridge mutants in pET22b), E. coli BL21(DE3); dimer with c-di-GMP, monomer without nucleotide
# [3] = biological target: T2, tDGC (GGDEF domain of TM1788); assay: X-ray crystallography; format: binding; settings: feedback-inhibitory I-site (158-RxxD-161, secondary R115); co-purified ligand; inactive dimer crystals pH 6.5 (2.27 Å), active-like dimer crystals pH 4.0 (1.9 Å)
# [4] = biological target: T3, tDGC (GGDEF domain of TM1788) (Thermotoga maritima, UniProt Q9X2A8, D177A); assay: gel filtration; format: binding; settings: I-site; co-purified ligand
# T3 construct: gene TM_1788; GGDEF domain, residues 82-248 of 248, N-terminal His6 tag, pET28b (salt-bridge mutants in pET22b), E. coli BL21(DE3); dimer with c-di-GMP, monomer without nucleotide
# [5] = biological target: T4, tDGC (GGDEF domain of TM1788) (Thermotoga maritima, UniProt Q9X2A8, R233A); assay: gel filtration; format: binding; settings: I-site; co-purified ligand
# T4 construct: gene TM_1788; GGDEF domain, residues 82-248 of 248, N-terminal His6 tag, pET28b (salt-bridge mutants in pET22b), E. coli BL21(DE3); dimer with c-di-GMP, monomer without nucleotide
# RocR = biological target: T5, RocR (Pseudomonas aeruginosa, UniProt Q9HX69); assay: hydrolysis of tDGC-bound c-di-GMP to pGpG, gel filtration and mass spectrometry; format: biochemical; settings: 25 mM Tris-HCl, 300 mM NaCl, 5% glycerol, 10 mM MgCl2, 2 h, room temperature
# T5 construct: recombinant RocR phosphodiesterase, expressed and purified as in cited earlier work
# T5 sequence (Q9HX69 whole entry): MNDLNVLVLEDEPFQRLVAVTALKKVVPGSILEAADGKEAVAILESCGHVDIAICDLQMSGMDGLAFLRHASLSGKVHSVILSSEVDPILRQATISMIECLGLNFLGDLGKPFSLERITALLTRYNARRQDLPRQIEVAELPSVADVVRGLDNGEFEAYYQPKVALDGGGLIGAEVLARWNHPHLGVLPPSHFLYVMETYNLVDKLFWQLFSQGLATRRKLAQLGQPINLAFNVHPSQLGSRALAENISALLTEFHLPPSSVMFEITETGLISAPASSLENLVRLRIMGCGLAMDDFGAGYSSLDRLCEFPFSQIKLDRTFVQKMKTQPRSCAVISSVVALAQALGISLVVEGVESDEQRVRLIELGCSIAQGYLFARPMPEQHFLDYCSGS
# T2 sequence (Q9X2A8 entry or part of it): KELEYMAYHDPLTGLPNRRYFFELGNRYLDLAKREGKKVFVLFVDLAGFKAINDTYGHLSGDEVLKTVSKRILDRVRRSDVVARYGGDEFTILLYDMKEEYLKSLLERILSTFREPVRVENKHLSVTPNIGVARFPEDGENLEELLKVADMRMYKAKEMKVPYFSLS
# T1 sequence (Q9X2A8 entry or part of it E196A): as the sequence (Q9X2A8 entry or part of it) above, with E115A counted along it
# T4 sequence (Q9X2A8 entry or part of it R233A): as the sequence (Q9X2A8 entry or part of it) above, with R152A counted along it
# T3 sequence (Q9X2A8 entry or part of it D177A): as the sequence (Q9X2A8 entry or part of it) above, with D96A counted along it
smiles,measurement,setting,value
Nc1nc2c(ncn2[C@@H]2O[C@@H]3COP(=O)(O)O[C@H]4[C@@H](O)[C@H](n5cnc6c(=O)[nH]c(N)nc65)O[C@@H]4COP(=O)(O)O[C@H]3[C@H]2O)c(=O)[nH]1 [c-di-GMP],gel filtration,[1],"The three mutants eluted as dimers in gel filtration, indicating that c-di-GMP is bound"
same,Tm (c-di-GMP-bound dimer; nucleotide-free monomer 85.5),[2],85.0 °C
same,structure,[3],The wild type tDGC protein co-purifies with c-di-GMP and co-crystallizes without any extraneous addition of ligand
same,gel filtration,[4],"The three mutants eluted as dimers in gel filtration, indicating that c-di-GMP is bound"
same,gel filtration,[5],"The three mutants eluted as dimers in gel filtration, indicating that c-di-GMP is bound"
same,"hydrolysis of tDGC-bound c-di-GMP to pGpG, gel filtration and mass spectrometry",RocR,Following incubation of the wild type tDGC bound to c-di-GMP with RocR
